In patent US11236083B2, “Compounds and pharmaceutical compositions for modulating SGK activity, and methods thereof” (NEW ERA PHARMA, INC., priority 2016, dated 2022):
Where two headings read alike, the source gives them in different places.

How the values were obtained:
[1] = molecular target: T1, Sgk2 (Homo sapiens, UniProt Q9HBY8); experiment: Enzyme based assay for SGK2 (biotinylated Akt Substrates-2 peptide, Eu3+ Cryptate/XL665 detection); format: biochemical
T1 sequence (Q9HBY8 1-367): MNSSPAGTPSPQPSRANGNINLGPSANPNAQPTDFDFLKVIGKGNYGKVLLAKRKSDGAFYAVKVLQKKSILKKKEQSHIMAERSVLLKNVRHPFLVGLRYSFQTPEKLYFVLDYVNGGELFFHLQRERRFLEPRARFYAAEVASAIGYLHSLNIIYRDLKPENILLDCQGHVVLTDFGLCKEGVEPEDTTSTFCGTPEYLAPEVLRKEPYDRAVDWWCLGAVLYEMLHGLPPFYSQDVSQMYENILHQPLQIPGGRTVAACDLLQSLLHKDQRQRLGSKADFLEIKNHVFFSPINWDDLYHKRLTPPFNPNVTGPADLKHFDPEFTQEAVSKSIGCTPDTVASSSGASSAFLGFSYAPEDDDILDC
Protocol: (§1) 1. Enzyme Based Assays for SGK1, SGK2, SGK3, and Akt1
(§2) The kinase enzymatic reaction is carried out with a biotinylated Akt Substrates-2 peptide substrate. The phosphorylated substrate is then detected using a specific anti-phospho peptide antibody which is coupled with Eu^3+ Cryptate and XL665 conjugated with streptavidin.
(§3) Exemplary Assay Conditions
(§4) • Enzyme: ˜0.1 nM • Substrate: 0.2 μM • ATP: 50 μM and 1 mM • Mg^2+: 10 mM • Reaction time: 60 min with 50 μM ATP and 30 min with 1 mM ATP • SA-XL to Biotin: 1:10
(§5) Detailed Steps • 1. prepare the enzyme and substrate solution with the buffer from Cisbio • 2. add the enzyme and substrate solution to the diluted compound plate • 3. transfer 5 μL of compound, enzyme, and substrate mixture to an 384-well assay plate • 4. add 5 μL ATP (with Mg^2+) solution to initiate the reaction • 5. after certain time, add 10 μL of stop solution containing SA-XL and specific antibody • 6. read the plate after 2 h incubation at rt • 7. process the data using prizm software (Exemplary results are shown in FIG. 1.) 2. PK Studies Protocol

[2] = molecular target: T2, Sgk1 (Homo sapiens, UniProt O00141); experiment: Enzyme based assay for SGK1 (biotinylated Akt Substrates-2 peptide, Eu3+ Cryptate/XL665 detection); format: biochemical
T2 sequence (O00141 1-431): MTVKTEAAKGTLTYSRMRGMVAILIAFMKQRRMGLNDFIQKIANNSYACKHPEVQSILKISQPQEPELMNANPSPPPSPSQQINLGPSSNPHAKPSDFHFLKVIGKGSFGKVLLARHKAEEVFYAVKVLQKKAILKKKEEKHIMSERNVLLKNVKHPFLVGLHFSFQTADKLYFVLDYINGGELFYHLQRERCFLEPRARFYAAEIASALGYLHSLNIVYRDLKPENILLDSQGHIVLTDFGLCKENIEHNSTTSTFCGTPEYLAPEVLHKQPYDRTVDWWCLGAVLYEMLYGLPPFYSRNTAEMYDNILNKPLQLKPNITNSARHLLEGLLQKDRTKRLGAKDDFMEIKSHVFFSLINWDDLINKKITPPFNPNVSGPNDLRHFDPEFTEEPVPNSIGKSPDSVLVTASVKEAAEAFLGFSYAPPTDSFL
Protocol: as §1, §2, §3, §4, §5

[3] = 50 μM ATP, read-out: Sgk2 (50 μM ATP)
[4] = 1 mM ATP, read-out: Sgk2 (1 mM ATP)
[5] = 50 μM ATP, read-out: Sgk1 (50 μM ATP)
[6] = 1 mM ATP, read-out: Sgk1 (1 mM ATP)

Structure (SMILES) | IC50 [1, 3] | IC50 [1, 4] | IC50 [2, 5] | IC50 [2, 6]
COc1ccc(F)c(S(=O)(=O)Nc2ccc(-c3cc(OCC(C)(C)O)c4c(N)n[nH]c4c3)cc2)c1 | 38.3 nM | 39.3 nM | 36.1 nM | –
COc1ccc(F)c(S(=O)(=O)Nc2ccc(-c3ccc4c(N)n[nH]c4c3)nc2)c1 [drawing 151] | 4.6 nM | 20.8 nM | 25 nM | 158 nM
COc1ccc(F)c(S(=O)(=O)Nc2ccc(-c3cc(OC(C)C)c4c(N)n[nH]c4c3)cc2)c1 | 64 nM | 192 nM | 42.3 nM | 58.8 nM
Nc1n[nH]c2cc(-c3ccc(NS(=O)(=O)c4cccc(Cl)c4Cl)cn3)ccc12 | 17.1 nM | 13.4 nM | 150 nM | 542 nM
CCOc1cc(-c2ccc(NS(=O)(=O)c3cc(OC)ccc3F)cc2)nc2[nH]nc(N)c12 | 7.8 nM | 10.1 nM | 16.2 nM | 8.2 nM
COc1ccc(F)c(S(=O)(=O)Nc2ccc(-c3cc(O[C@@H]4CCOC4)c4c(N)n[nH]c4c3)nc2)c1 | 4 nM | 36 nM | 8.5 nM | 10.3 nM
COCCOc1cc(-c2ccc(NS(=O)(=O)c3cc(OC)ccc3F)cc2)nc2[nH]nc(N)c12 | 9.6 nM | 69.4 nM | 28.7 nM | 10.4 nM
COc1ccc(F)c(S(=O)(=O)Nc2ccc(-c3cc(OCC4CNCCO4)c4cn[nH]c4n3)cc2)c1 (stereo not shown) | 3.5 nM | 9.8 nM | 3.4 nM | 10.7 nM
COc1ccc(F)c(S(=O)(=O)Nc2ccc(-c3cc4[nH]ncc4c(OC)n3)cc2)c1 | 38.5 nM | 32.7 nM | 70.6 nM | –
COc1ccc(F)c(S(=O)(=O)Nc2ccc(-c3cc(O[C@@H]4CCOC4)c4c(N)n[nH]c4c3)cc2)c1 | 4.6 nM | 9.3 nM | 5.5 nM | 1.5 nM
COc1ccc(F)c(S(=O)(=O)Nc2ccc(-c3cc(OC4CCOC4)c4c(N)n[nH]c4n3)cc2)c1 (stereo not shown) | 7.6 nM | 7.6 nM | 24.7 nM | 8.9 nM
COc1ccc(F)c(S(=O)(=O)Nc2ccc(-c3cc4c5c(n[nH]c5c3)NC(=O)C(C)(C)O4)cc2)c1 | 35 nM | 323 nM | 77.6 nM | 344 nM
CCOc1cc(-c2ccc(NS(=O)(=O)c3cc(OC)ccc3F)cn2)cc2[nH]nc(N)c12 | 75 nM | 19.8 nM | 14.1 nM | 110 nM
CNCCOc1cc(-c2ccc(NS(=O)(=O)c3cc(OC)ccc3F)cc2)cc2[nH]nc(N)c12 | 6 nM | 38.8 nM | 17.7 nM | 11.3 nM
COc1ccc(F)c(S(=O)(=O)Nc2ccc(-c3cc4c5c(n[nH]c5c3)NC(=O)CO4)cc2)c1 | 24.3 nM | 222 nM | 30.6 nM | 970 nM
COc1ccc(F)c(S(=O)(=O)Nc2ccc(-c3cnc4c(N)n[nH]c4c3)nc2)c1 | 27.8 nM | 134 nM | 141 nM | 208 nM
COc1ccc(F)c(S(=O)(=O)Nc2ccc(-c3cc(C)c4c(N)n[nH]c4c3)nc2)c1 | 5 nM | 7.9 nM | 10.1 nM | 9.2 nM
COc1ccc(F)c(S(=O)(=O)Nc2ccc(-c3cc(OC4COC4)c4c(N)n[nH]c4c3)cc2)c1 | 4.4 nM | 6.5 nM | 8.6 nM | 3.8 nM
COc1ccc(F)c(S(=O)(=O)Nc2ccc(-c3ccc4cn[nH]c4c3)nc2)c1 | 31.4 nM | 267 nM | 92.5 nM | 144 nM
COc1ccc(F)c(S(=O)(=O)Nc2ccc(-c3cc(OCC4CNCCO4)c4c(N)n[nH]c4c3)cc2)c1 (stereo not shown) | 2 nM | 3.8 nM | 2.3 nM | 3.9 nM
COc1ccc(F)c(S(=O)(=O)Nc2ccc(-c3cc(O[C@H]4CCOC4)c4c(N)n[nH]c4c3)cc2)c1 | 10.3 nM | 16.4 nM | 5.2 nM | 2.9 nM
COc1ccc(F)c(S(=O)(=O)Nc2ccc(-c3cc(OCCN(C)C)c4c(N)n[nH]c4c3)cc2)c1 | 9.1 nM | 104 nM | 27 nM | 20 nM

Further compounds by falling IC50 [1, 3], results first:

IC50 [1, 3] | IC50 [1, 4] | IC50 [2, 5] | IC50 [2, 6] | Structure (SMILES)
109 nM | – | > 2000 nM | – | COc1ccc(Cl)c(NS(=O)(=O)c2ccc(-c3ccc4c(N)n[nH]c4n3)cc2)c1
14.6 nM | 17.8 nM | 109 nM | 181 nM | COc1ccc(F)c(S(=O)(=O)Nc2ccc(-c3cc(O[C@H]4CCOC4)c4c(N)n[nH]c4c3)nc2)c1
9.7 nM | > 200 nM | 160 nM | > 200 nM | COc1ccc(F)c(S(=O)(=O)Nc2ccc(-c3cc4[nH]ncc4cn3)cc2)c1
8.4 nM | 71.5 nM | 21.5 nM | 49.9 nM | COc1ccc(F)c(S(=O)(=O)Nc2ccc(-c3cc(C)c4c(N)n[nH]c4c3)cc2)c1
7.2 nM | 29.7 nM | 29.7 nM | 133 nM | COc1ccc(F)c(S(=O)(=O)Nc2ccc(-c3cc(OC)c4c(N)n[nH]c4c3)cn2)c1
5.9 nM | – | 12.1 nM | – | Cc1n[nH]c2nc(-c3ccc(NS(=O)(=O)c4cc(Cl)ccc4F)cc3)ccc12
5.4 nM | 4 nM | 17.9 nM | 27.3 nM | COc1ccc(F)c(S(=O)(=O)Nc2cnc(-c3cc(OC)c4c(N)n[nH]c4c3)nc2)c1
5.3 nM | 3.5 nM | 8.1 nM | 4.2 nM | COc1ccc(F)c(S(=O)(=O)Nc2ccc(-c3cc4[nH]ncc4c(NCC4CNCCO4)n3)cc2)c1 (stereo not shown)
5 nM | 6.5 nM | 13 nM | 11.1 nM | COc1ccc(F)c(S(=O)(=O)Nc2ccc(-c3cc(OC)c4c(N)n[nH]c4c3)nc2)c1
4.5 nM | 33.2 nM | 40 nM | 15.3 nM | COCCOc1cc(-c2ccc(NS(=O)(=O)c3cc(OC)ccc3F)cn2)cc2[nH]nc(N)c12
4.2 nM | 40 nM | 45 nM | 187 nM | COc1ccc(F)c(S(=O)(=O)Nc2ccc(-c3cc(OCCN(C)C)c4c(N)n[nH]c4n3)cc2)c1
3.7 nM | 7.5 nM | 14.1 nM | 62.2 nM | COc1ccc(F)c(S(=O)(=O)Nc2cnc(-c3ccc4c(N)n[nH]c4c3)nc2)c1
3.4 nM | 18.6 nM | 4.8 nM | 12.6 nM | COc1ccc(F)c(S(=O)(=O)Nc2ccc(-c3cc4c5c(n[nH]c5c3)NC(=O)CN4)cc2)c1
3 nM | 35.7 nM | 17.1 nM | 112 nM | COc1ccc(F)c(S(=O)(=O)Nc2ccc(-c3cc(OC)c4c(N)n[nH]c4n3)cc2)c1
1.8 nM | 25.2 nM | 1.8 nM | 31.9 nM | COc1ccc(Cl)c(S(=O)(=O)Nc2ccc(-c3cc(OCC4CNCCO4)c4cn[nH]c4c3)cc2)c1 (stereo not shown)
